From patent publication US20180021460A1, “PROBES AND METHODS FOR DETECTING AMYLOIDOGENIC PROTEINS” (Academia Sinica, priority 2016, published 2018)
Non-standard residues stand in square brackets, D forms with d. No end group written: not given here. o‑nitrobenzyl photocleavable linker = o-nitrobenzyl photocleavable moiety placed between the 8R peptide and the amyloidogenic sequence; Alexa568 = Alexa568 fluorophore linked to the cysteine residue

Columns and labels:
TDP-43 and importin-α1 = experiment: Localization of endogenous TDP-43 and importin-α1 in JHR2-treated cells; type: cell-based
EGFP-TDP-43 in N2A cells [1] = experiment: Microinjection of probe into N2A cells and irradiation; type: cell-based, mouse; details: N2A cells microinjected, data not shown
From the text: The glass microneedles for microinjection (1B100-F4, World Precision Instruments, USA) were pulled with a PC-10 capillary puller (Narishige, Japan). […] A Picospriterzer III microinjection system and a joystick micromanipulator (Narishige, Japan) mounted with a stage-side of a microscope (IX-71, Olympus, Japan) were used for delivering the peptide solution into the cytosol of N2A cells. After microinjection (injection pressure, 80 hPa; injection time, 100 msec; compensation pressure, 20 hPa), cells were subsequently rinsed with 2 mL of L-15 medium supplemented with 10% FBS for 1 hr of recovery.

EGFP-TDP-43 in N2A cells [2] = experiment: EGFP-TDP-43 aggregation / co-localization in JHR2-treated N2A cells (confocal); type: cell-based, mouse
Protocol: (§1) Cell Maintenance, Peptide Treatment, and Photolysis
(§2) Mouse neuroblastoma N2A cells (generous gift from Dr. Yijuang Chern, IBMS, Academia Sinica) were cultured in Dulbecco's modified Eagle's medium (DMEM) (Invitrogen) supplemented with 2 mM glutamine, 10% heat-inactivated fetal bovine serum and 100 U/mL penicillin-streptomycin (Invitrogen) at 37° C. in a humidified atmosphere with 5% CO2. Before peptide incubation, cells were treated with 5-aminoimidazole-4-carboxamide-1-β-D-ribofuranoside (AICAR) to induce the cytoplasmic mislocalization of TDP-43. JHR2 was prepared by dissolving the lyophilized powder in the cell culture medium. Cells were incubated with polypeptide-containing medium for 3 hr, washed, and UV-illuminated (mercury lamp with 345-385 nm bandpass filter, average power: 8.24 mW/cm^2).
Confocal and Super-Resolution Fluorescence Microscopy with Airy Scan
(§3) For EGFP-TDP-43 expression, 2×10^5 of N2A cells in a 30-mm square coverslip were transfected with 1 μg of full-length TDP-43-EGFP plasmid with TurboFect Transfection Reagent (Thermo Scientific) according to the manufacturer's protocol. After peptide and photolysis treatment as described above, cells were incubated for an additional 24 hr and then fixed with 4 paraformaldehyde. Confocal images were captured with LSM 880 and super resolution imaging was performed with Airy Scan (Zeiss, Germany). […]

EGFP-TDP-43 in N2A cells [3] = experiment: Time-lapse living cell fluorescence microscopy and Annexin V staining; type: cell-based, mouse
Protocol: Time-lapse Living Fluorescence Cell Microscopy and Annexin V Staining
N2A cells (5×10^4) were transfected with 1 μg of full-length TDP-43-EGFP in a sterilized 35 mm μ-Dish (Ibidi, Martinsried, Germany). The living cells were imaged with a Nikon TiE inverted microscope equipped with a Tokai-hit constant humidity chamber (37° C., 5% CO2) for 25 hr. Hoechst, EGFP, Aleax Fluor 568 and Cy5 cube filters were used to collect the fluorescence emission accordingly. Cellular images were captured with an Andor iXon3 888 back-illuminated high sensitivity EMCCD camera. Images were analyzed and quantified using Nikon NIS element software. After 24 hr of peptide treatment, the cells were washed twice with PBS, washed once with 1× Annexin V binding buffer, incubated with Annexin V-Cy5 (BioVision, USA) at room temperature and imaged.

[4] = system: Ran (RAS-related nuclear protein); experiment: Localization of endogenous Ran in JHR2-treated cells; type: cell-based
Protocol: as §2
For EGFP-TDP-43 expression, 2×10^5 of N2A cells in a 30-mm square coverslip were transfected with 1 μg of full-length TDP-43-EGFP plasmid with TurboFect Transfection Reagent (Thermo Scientific) according to the manufacturer's protocol. After peptide and photolysis treatment as described above, cells were incubated for an additional 24 hr and then fixed with 4 paraformaldehyde. Confocal images were captured with LSM 880 and super resolution imaging was performed with Airy Scan (Zeiss, Germany). For immunostaining, anti-TDP-43 antibody (Abcam, ab104223) and anti-Ran (Abcam, ab155103) antibody were used, respectively.

[5] = Transmission electron microscopy (vesicle size, fibril formation); type: physicochemical; details: upon illumination 335-379 nm, 8.24 mW/cm^2, 3 mins
Protocol: Transmission Electron Microscopy
The resulting aliquots of peptide solutions (5 μL) were applied on glow-charged 300 mesh formvar- and carbon-coated copper grids stained with 1% uranyl acetate. After drying overnight, all samples were analyzed using a JEM-2011 electron microscope (JEOL, Japan).

[6] = system: endogenous TDP-43 in N2A cells; experiment: Endogenous TDP-43 aggregates in N2A cells (immunostaining, high content analysis); type: cell-based, mouse; details: pinhole-confined UV light spot, 24 hr incubation
Protocol: as §1, §2, §3

## JHR2: Same peptide probe as JHR1 with Alexa568 fluorophore linked to the cysteine residue instead of tert-butyl thiol (RRRRRRRR[o‑nitrobenzyl photocleavable linker]MGGGMNFGAFSINPAMC(Alexa568)-NH2)
TDP-43 and importin-α1; +JHR2+Light
  TDP-43 and importin-α1 localization under photoactivation: translocated from the nucleus to cytosol and formed aggregates
TDP-43 and importin-α1; +JHR2−Light
  importin-α1 localization, probe-treated only (no light): mainly remained in the nucleus
EGFP-TDP-43 in N2A cells [1]
  onset of EGFP-TDP43 aggregation after microinjection and irradiation: 4 h
  onset of clustering of JHR2 after microinjection and irradiation: 2 h
EGFP-TDP-43 in N2A cells [2]; AICAR pretreated, 24 hrs after non-focused light 335-379 nm, 8.24 mW/cm^2, 3 mins
  aggregates of JHR2 and EGFP-TDP-43 after irradiation: developed pronounced aggregates and/or inclusion bodies that were largely co-localized in the cytosol
EGFP-TDP-43 in N2A cells [2]; JHR2 1 μM, 3 hr
  cell penetration: may quickly penetrate cells
EGFP-TDP-43 in N2A cells [3]; N2A cells expressing EGFP-TDP-43, with JHR2, after illumination
  time at which EGFP-TDP-43 puncta became detectable: Twenty hours after illumination, the EGFP-TDP-43 puncta became detectable
EGFP-TDP-43 in N2A cells [3]; N2A cells with EGFP-TDP-43 inclusion bodies, end of time course 25 hr
  apoptosis by Annexin V staining: on the verge of apoptosis
[4]; +JHR2+Light
  Ran protein miss-localized into the cytoplasm: > 90%
[4]; +JHR2−Light
  Ran localization, probe-treated only (no light): mainly resided in the nucleus
[5]
  time to detection of massive fibrils (TEM): ≤ 4 h
[6]
  seeding of endogenous TDP-43 cytosolic aggregation within confined illuminated area: selectively induced the JHR2 amyloid to “seed” endogenous TDP-43 cytosolic aggregation
